US9006185B2, “Use of cell-permeable peptide inhibitors of the JNK signal transduction pathway for the treatment of various diseases” (Xigen Inflammation Ltd., priority 2008, dated 2015)
Where two headings read alike, the source gives them in different places. Square brackets hold non-standard residues; d marks the D form. Ends that are not written are not given here.

Assays:
gerbil = details: transient global ischemia; cited from earlier work
[1] = test system: chick embryonic dorsal root ganglion, sympathetic, ciliary and motor neurons; details: cited from earlier work
[2] = test system: primary embryonic cultures and differentiated PC12 cells; details: after trophic withdrawal; cited from earlier work
TC-3 cells [3] = test: Cellular import of fluorescein-labeled TAT and TAT-IB1(s) peptides; format: cell-based
Description: The ability of the L- and D-enantiomeric forms of TAT and TAT-IB1(s) peptides (“TAT-IB peptides”) to enter cells was evaluated. L-TAT, D-TAT, L-TAT-IB1(s), and D-TAT-IB1(s) peptides [SEQ ID NOs: 5, 6, 9 and 12, respectively] were labeled by N-terminal addition of a glycine residue conjugated to fluorescein. Labeled peptides (1 μM) were added to TC-3 cell cultures, which were maintained as described in Example 3. At predetermined times cells were washed with PBS and fixed for five minutes in ice-cold methanol-acetone (1:1) before being examined under a fluorescence microscope. Fluorescein-labeled BSA (1 μM, 12 moles/mole BSA) was used as a control.
Little to no signal was present at 48 hours.
Fluorescent signals from these all-D retro-inverso peptides were still very strong 1 week later, and the signal was only slightly diminished at 2 weeks post treatment.

JNK = details: JBDs; cited from earlier work
TC-3 cells [4] = test: IL-1 induced pancreatic beta-cell death, peptide treatment; format: cell-based; details: one single addition 1 μM, two days of incubation with IL-1
Description: Inhibition of IL-1 induced pancreatic beta-cell death by the D-TAT-IB1(s) peptide was analyzed. TC-3 cells were incubated as described above for 30 minutes with one single addition of the indicated peptides (1, μM), then IL-1 (10 ng/ml) was added.
Apoptotic cells were then counted after two days of incubation with IL-1 by use of Propidium Iodide and Hoechst 33342 nuclear staining. A minimum of 1,000 cells were counted for each experiment. Standard Error of the Means (SEM) are indicated, n=5.
Long term inhibition of IL-1P induced cell-death by the D-TAT-IB1 peptide was also analyzed. TC-3 cells were incubated as above for 30 minutes with one single addition of the indicated peptides (1 μM), then IL-1 (10 ng/ml) was added, followed by addition of the cytokine every two days. Apoptotic cells were then counted after 15 days of incubation with IL-1 by use of propidium iodide and Hoechst 33342 nuclear staining. […] A minimum of 1.000 cells were counted for each experiment.

[5] = fluorescein labeled, 1 μM, TC-3 cells

N#CC(c1ccnc(NCCc2cccnc2)n1)c1nc2ccccc2s1 (centres unmarked) [AS601245]
delayed loss of hippocampal CA1 neurons (gerbil): significant protection against the delayed loss of hippocampal CA1 neurons

CCSCc1ccc2c(c1)c1c3c(c4c5cc(CSCC)ccc5n5c4c1n2[C@H]1C[C@](O)(C(=O)OC)[C@]5(C)O1)CNC3=O [CEP-1347]
long term survival of cultured neurons [1]: promote long term-survival
neuronal survival [2]: promotes neuronal survival at dosages that inhibit activation of the c-Jun amino-terminal kinases

Fluorescein-labeled BSA: fluorescein labeled bovine serum albumin, 12 moles fluorescein/mole BSA, control [reference compound]
entry into cells (fluorescence microscopy) (TC-3 cells [3]): did not enter the cells

GRKKRRQRRR (Description of sequence Peptide L-TAT (see Table 1))
entry into cells (fluorescence microscopy) (TC-3 cells [3]; [5]): efficiently and rapidly (less than five minutes) entered cells

GRKKRRQRRRPPRPKRPTTLNLFPQVPRSQD [L-TAT-IB1(s)]
entry into cells (fluorescence microscopy) (TC-3 cells [3]; [5]): efficiently and rapidly (less than five minutes) entered cells

IPSPSVEEPHKHRPTTLRLTTLGAQDS (Description of sequence Peptide IB2-long (see Table 1))
efficiency in binding JNK relative to c-Jun or ATF2 (JNK): approximately 100 fold

PGTGCGDTYRPKRPTTLNLFPQVPRSQDT (Description of sequence peptide IB1-long (see Table 1))
efficiency in binding JNK relative to c-Jun or ATF2 (JNK): approximately 100 fold

RRRQRRKKRG (D-amino acids; Description of sequence Peptide D-TAT (see Table 1))
entry into cells (fluorescence microscopy) (TC-3 cells [3]): efficiently and rapidly (less than five minutes) entered cells
stability inside the cells (TC-3 cells [3]): extremely stable inside the cells

TDQSRPVQPFLNLTTPRKPRYTDPPRRRQRRKKRG (H-[dT][dD][dQ][dS][dR][dP][dV][dQ][dP][dF][dL][dN][dL][dT][dT][dP][dR][dK][dP][dR][dY][dT][dD][dP][dP][dR][dR][dR][dQ][dR][dR][dK][dK][dR]G-OH) [D-TAT-IB1]
IL-1 induced apoptosis (TC-3 cells [4]): decreased IL-1 induced apoptosis to a similar extent as L-TAT-IB peptides
